From ChEMBL document CHEMBL1201862, “PubChem BioAssay data set” (2004)
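96-well plates; 48 h exposure; 5 concentrations. Endpoints by linear interpolation between flanking doses. Not reached: highest tested concentration assigned. The concentration for 50% growth inhibition is given as GI50.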 Active and inactive are the calls of the source. Cut-off read from the data, not from the text of the source: active = GI50 up to about 1.1 µM and inactive = higher.

Assays:
Test in all cases: NCI-60 cell line screen, 48 h
[1] = system: CCRF-CEM
[2] = system: MDA-MB-231
[3] = system: HCT-15
[4] = system: OVCAR-3
[5] = system: NCI-H23
[6] = system: MOLT-4
[7] = system: T47D
[8] = system: HL-60
[9] = system: UACC-257
[10] = system: COLO 205
[11] = system: MDA-N
[12] = system: A549
[13] = system: IGROV-1
[14] = system: ACHN
[15] = system: SF-295
[16] = system: SNB-19
[17] = system: NCI-H226
[18] = system: RPMI-8226
[19] = system: K562
[20] = system: CAKI-1

| Structure (SMILES) | GI50 [1] | GI50 [2] | GI50 [3] | GI50 [4] | GI50 [5] | GI50 [6] | GI50 [7] | GI50 [8] | GI50 [9] | GI50 [10] | GI50 [11] | GI50 [12] | GI50 [13] | GI50 [14] | GI50 [15] | GI50 [16] | GI50 [17] | GI50 [18] | GI50 [19] | GI50 [20] |
| --- | --- | --- | --- | --- | --- | --- | --- | --- | --- | --- | --- | --- | --- | --- | --- | --- | --- | --- | --- | --- |
| c1ccc(C2C(=P(c3ccccc3)(c3ccccc3)c3ccccc3)P=PC2[P+](c2ccccc2)(c2ccccc2)c2ccccc2)cc1.c1ccc([B-](c2ccccc2)(c2ccccc2)c2ccccc2)cc1 (stereo not given) | 2.25 µM (inactive) | 0.39 µM (active) | 28.1 µM | 0.579 µM (active) | 0.351 µM (active) | 1.63 µM (inactive) | 0.191 µM (active) | 0.107 µM (active) | 1.12 µM (inactive) | 0.202 µM (active) | 0.139 µM (active) | 0.422 µM (active) | 0.57 µM (active) | 0.701 µM (active) | 0.492 µM (active) | 0.313 µM (active) | 1.11 µM (active) | 0.278 µM (active) | 0.173 µM (active) | 3.66 µM (inactive) |
| NCCCNC1(c2cc3ccccc3s2)CCCCC1 | 2.48 µM (inactive) | 3.86 µM (inactive) | 4.49 µM | 7.19 µM (inactive) | 15.7 µM (inactive) | 3.29 µM (inactive) | 2.58 µM (inactive) | 2.64 µM (inactive) | 1.64 µM (inactive) | 1.84 µM (inactive) | 1.78 µM (inactive) | 7.1 µM (inactive) | 10.6 µM (inactive) | 11.9 µM (inactive) | 9.48 µM (inactive) | 8.77 µM (inactive) | 17.1 µM (inactive) | 1.91 µM (inactive) | 1.85 µM (inactive) | 8.43 µM (inactive) |
| NS(=O)(=O)c1ccc(NC(NC(=O)C(C(F)(F)F)C(F)(F)F)(C(F)(F)F)C(F)(F)F)cc1 | > 100 µM (inactive) | > 100 µM (inactive) | > 100 µM | > 100 µM (inactive) | > 100 µM (inactive) | > 100 µM (inactive) | > 100 µM (inactive) | > 100 µM (inactive) | > 100 µM (inactive) | > 100 µM (inactive) | > 100 µM (inactive) | > 100 µM (inactive) | > 100 µM (inactive) | > 100 µM (inactive) | > 100 µM (inactive) | > 100 µM (inactive) | > 100 µM (inactive) | > 100 µM (inactive) | > 100 µM (inactive) | > 100 µM (inactive) |
| CC1=C2CC(C)(C)CC(=O)C2(C)CCC1=O (stereo not given) | > 100 µM (inactive) | > 100 µM (inactive) | > 100 µM | – | > 100 µM (inactive) | > 100 µM (inactive) | > 100 µM (inactive) | > 100 µM (inactive) | > 100 µM (inactive) | > 100 µM (inactive) | > 100 µM (inactive) | > 100 µM (inactive) | > 100 µM (inactive) | > 100 µM (inactive) | > 100 µM (inactive) | > 100 µM (inactive) | > 100 µM (inactive) | 3.02 µM (inactive) | > 100 µM (inactive) | > 100 µM (inactive) |
| COc1ccc2nc3cc(Cl)ccc3c(NCCCNCc3cc(OC)c(OC)c(OC)c3)c2c1 | 0.865 µM (active) | 1.98 µM (inactive) | 1.54 µM | 1.83 µM (inactive) | 1.71 µM (inactive) | 0.515 µM (active) | 1.89 µM (inactive) | 0.895 µM (active) | 1.94 µM (inactive) | 1.31 µM (inactive) | 1.82 µM (inactive) | 1.83 µM (inactive) | 1.82 µM (inactive) | 1.62 µM (inactive) | 1.51 µM (inactive) | 1.83 µM (inactive) | 1.67 µM (inactive) | 1.53 µM (inactive) | 0.465 µM (active) | 1.71 µM (inactive) |
| O=C1c2ccccc2C2=Cc3ccccc3C(O)N12 (stereo not given) | 36.5 µM (inactive) | > 100 µM (inactive) | > 100 µM | > 100 µM (inactive) | > 100 µM (inactive) | 34 µM (inactive) | 70.5 µM (inactive) | 26.2 µM (inactive) | > 100 µM (inactive) | > 100 µM (inactive) | > 100 µM (inactive) | > 100 µM (inactive) | > 100 µM (inactive) | > 100 µM (inactive) | > 100 µM (inactive) | > 100 µM (inactive) | > 100 µM (inactive) | 55.3 µM (inactive) | 36.1 µM (inactive) | 22.7 µM (inactive) |
| O=C(Nc1ccc(Cl)c(C(F)(F)F)c1)C(=O)c1c(O)c2ccccc2oc1=O | > 100 µM (inactive) | > 100 µM (inactive) | > 100 µM | > 100 µM (inactive) | > 100 µM (inactive) | > 100 µM (inactive) | > 100 µM (inactive) | > 10 µM (inactive) | > 100 µM (inactive) | – | > 100 µM (inactive) | > 100 µM (inactive) | > 100 µM (inactive) | > 100 µM (inactive) | > 100 µM (inactive) | > 100 µM (inactive) | > 100 µM (inactive) | > 100 µM (inactive) | > 100 µM (inactive) | > 100 µM (inactive) |
| CC(=O)OC[C@]1(C(=O)C(O)c2ccoc2)[C@H](C)CC[C@@]23COC(=O)C2=CCC[C@@H]31 (stereo not given in full) | > 10 µM (inactive) | > 10 µM (inactive) | > 10 µM | > 10 µM (inactive) | > 10 µM (inactive) | > 10 µM (inactive) | > 10 µM (inactive) | > 10 µM (inactive) | > 10 µM (inactive) | > 10 µM (inactive) | > 10 µM (inactive) | > 10 µM (inactive) | > 10 µM (inactive) | > 10 µM (inactive) | > 10 µM (inactive) | > 10 µM (inactive) | > 10 µM (inactive) | > 10 µM (inactive) | – | > 10 µM (inactive) |
| COC(=O)C1C2CCCN2OC1(C)CO (stereo not given) | > 100 µM (inactive) | > 100 µM (inactive) | > 100 µM | > 100 µM (inactive) | > 100 µM (inactive) | > 100 µM (inactive) | > 100 µM (inactive) | > 100 µM (inactive) | > 100 µM (inactive) | > 100 µM (inactive) | > 100 µM (inactive) | > 100 µM (inactive) | > 100 µM (inactive) | > 100 µM (inactive) | > 100 µM (inactive) | > 100 µM (inactive) | > 100 µM (inactive) | > 100 µM (inactive) | > 100 µM (inactive) | > 100 µM (inactive) |
| CC[C@@]1(O)C(=O)OCc2c1cc1n(c2=O)Cc2c-1nc1ccccc1c2/C=N\NC(=O)C(N)=O | < 0.01 µM (active) | 31.8 µM (inactive) | 14.7 µM | 18.3 µM (inactive) | 0.0543 µM (active) | < 0.0138 µM (active) | < 0.01 µM (active) | 0.0582 µM (active) | 14.4 µM (inactive) | > 50.1 µM (inactive) | 5.61 µM (inactive) | 0.859 µM (active) | 4.79 µM (inactive) | < 0.0151 µM (active) | 0.151 µM (active) | 0.0383 µM (active) | 0.219 µM (active) | 0.61 µM (active) | 0.505 µM (active) | 0.0655 µM (active) |
| C1COCCN1.S=C(S)N1CCOCC1 | 0.526 µM (active) | > 100 µM (inactive) | 6.7 µM | 2.68 µM (inactive) | 2.43 µM (inactive) | 1.47 µM (inactive) | > 100 µM (inactive) | 1.12 µM (inactive) | 4.68 µM (inactive) | 0.661 µM (active) | 94 µM (inactive) | 8.24 µM (inactive) | 6.76 µM (inactive) | > 100 µM (inactive) | > 100 µM (inactive) | > 100 µM (inactive) | > 100 µM (inactive) | 1.4 µM (inactive) | 1.46 µM (inactive) | 5.51 µM (inactive) |
| CC1C2CC(CC2N)C1(C)C (stereo not given) | > 100 µM (inactive) | > 100 µM (inactive) | – | > 100 µM (inactive) | > 100 µM (inactive) | > 100 µM (inactive) | > 100 µM (inactive) | > 100 µM (inactive) | > 100 µM (inactive) | > 100 µM (inactive) | > 100 µM (inactive) | > 100 µM (inactive) | > 100 µM (inactive) | > 100 µM (inactive) | > 100 µM (inactive) | > 100 µM (inactive) | > 100 µM (inactive) | – | > 100 µM (inactive) | > 100 µM (inactive) |
| CC(=O)Oc1c2oc3ccc(Cl)cc3c(=O)c2c(O)c2ccsc12 | 86.1 µM (inactive) | 28.2 µM (inactive) | > 100 µM | > 100 µM (inactive) | > 100 µM (inactive) | – | 0.132 µM (active) | > 100 µM (inactive) | > 100 µM (inactive) | > 100 µM (inactive) | > 100 µM (inactive) | > 100 µM (inactive) | – | > 100 µM (inactive) | > 100 µM (inactive) | > 100 µM (inactive) | > 100 µM (inactive) | > 100 µM (inactive) | 60.7 µM (inactive) | > 100 µM (inactive) |
| CCOC(=O)c1c(O)cn2c1[nH]c1cccc3cccc2c31 | 32.6 µM (inactive) | > 100 µM (inactive) | 54.6 µM | – | 62.4 µM (inactive) | 44.2 µM (inactive) | 50.8 µM (inactive) | 57.3 µM (inactive) | > 100 µM (inactive) | 71.6 µM (inactive) | > 100 µM (inactive) | > 100 µM (inactive) | 62.2 µM (inactive) | 52.4 µM (inactive) | 87.5 µM (inactive) | 97.7 µM (inactive) | > 100 µM (inactive) | > 100 µM (inactive) | > 100 µM (inactive) | > 100 µM (inactive) |
| O=c1c(-c2ccccc2F)coc2cc(F)ccc12 | > 100 µM (inactive) | > 100 µM (inactive) | > 100 µM | > 100 µM (inactive) | 63.4 µM (inactive) | > 100 µM (inactive) | > 100 µM (inactive) | 70.6 µM (inactive) | > 100 µM (inactive) | > 100 µM (inactive) | > 100 µM (inactive) | > 100 µM (inactive) | 88.3 µM (inactive) | > 100 µM (inactive) | > 100 µM (inactive) | > 100 µM (inactive) | > 100 µM (inactive) | – | – | > 100 µM (inactive) |
